Experimental data published in patent US20120065187A1 (ALCON RESEARCH, LTD, priority 2008, published 2012).

Key:
CD-1 mice = experiment: Model of scratching induced by histamine in CD-1 mice (assessment of H4 antagonism); assay type: in vivo; conditions: 30 mg/kg oral gavage 30 min before i.d. histamine; bouts counted for 20 minutes; female CD-1 mice
Description: Assessment of H4 Antagonism—Model of Scratching Induced by Histamine in CD-1 mice.
Female CD-1 mice (Charles River, Hollister, Calif.), approximately 10 weeks old were housed under controlled conditions (12 h light: 12 h dark, 21° C.) and allowed ad libitum access to food (Purina LabDiet 5P14) and water. Animals were deprived of access to food and water for 1 hour during the experimental itch protocol. All studies were performed under the guidelines of the Institutional Animal Care and Use Committee of Kalypsys, Inc.
At least 24 hours prior to study initiation, the hair on the rostral dorsum of the animal was clipped to clear a location for intradermal (i.d.) injection of pruritogen (histamine, dissolved in Dulbecco's PBS [pH 7.4] at a concentration of 10 μmol per 20 μL). Animals were dosed by oral gavage with vehicle (9/0.5/0.5/90 PEG-400/Tween-80/PVP-K30/1% carboxymethylcellulose in water) or test compounds (formulated as suspensions in vehicle) at 30 mg/kg in 200 μL by means of a 20 gauge 1.5″ feeding needle affixed to a 1 mL syringe. There were 8 mice per study group. Thirty minutes after oral dosing, animals were injected i.d. with 20 μL of histamine. Immediately afterward animals were placed into individual sections of a standard acrylic cage for observation, which was recorded digitally for a 20 minute period by video cameras (Panasonic SDR-S70/PC) for later review.
Quantitation of induced itch was measured as described previously (Bell, J. K. et al., British Journal of Pharmacology, 142:374-380, 2004) by counting the number of scratching bouts per animal in the 20 minute period after i.d. injection. A scratching bout was defined as three rapid scratch movements of the hind paw in the area of the injection site. Activity with the fore paws was deemed to be grooming and not scratching, and thus was not counted. All data were analyzed using GraphPad Prism (San Diego, Calif.) software, and reported as mean percentage reduction in scratching bouts versus vehicle control. The significance of antagonist effect on agonist-induced itching was analyzed using the nonparametric Mann-Whitney test with P values <0.05 being designated as statistically significant.
Data reported as NT refers to the example having been not tested. It is expected that these compounds when tested will be active and will have utility similar to those that have been tested. In Table 2 below, entries with superscript “1” are statistically significant according to the criteria outlined in the protocol above. Entries with superscript “2” are examples that have been tested on two separate days and the results reported below are the mean of the two experiments

[1] = test system: Hartley VAF outbred guinea pigs; experiment: Allergic conjunctivitis in passively sensitized guinea pigs (conjunctival EPO activity); assay type: in vivo; design: key: +: a 0.01% bid dose was statistically equivalent to dexamethasone with respect to reduction of EPO activity; −: the compound was statistically inferior to dexamethasone and not different than vehicle; conditions: 0.01% bid topical, 1 hour prior to and 8 hours after ovalbumin challenge; reduction of conjunctival EPO activity vs dexamethasone
Description: Male Hartley VAF outbred guinea pigs were passively sensitized to ovalbumin by a single OD subconjunctival injection of undiluted guinea pig anti-ovalbumin antiserum 24 hours before OD topical challenge with 500 μg ovalbumin in saline. Control animals were injected with saline only and challenged with ovalbumin. To determine acute phase drug efficacy, 30 min after challenge animals were clinically scored by a masked observer for severity of signs of conjunctivitis based on a standard scale. Test compounds were administered topically 1 hour prior to challenge (QD protocol), or 1 hour prior to challenge and again 8 hours after challenge (BID protocol). Twenty-four hours after challenge, animals were euthanized and conjunctivae were harvested for determination of tissue eosinophil peroxidase (EPO) concentration as a marker of allergic inflammation. Homogenates of freshly collected tissues were prepared by shaking the tissues in 2 mL round-bottom tubes containing 0.5 mL of homogenization buffer (50 mM Tris HCl, pH 8.0, 6 mM KBr) and one 5-mm stainless steel bead on a Qiagen TissueLyser at 30 Hz for 5 min. Homogenates were frozen and thawed once, then centrifuged at 10,000 rpm for 5 min. EPO activity in supernatants was measured by reacting diluted homogenates with a solution of 6 mM o-phenylenediamine substrate and 8.8 mM H2O2 in homogenization buffer for 3 min. The reaction was stopped with 4M H2SO4 and absorbances were measured at […] on a spectrophotometric plate reader. Total EPO in samples was calculated from a standard curve of recombinant human EPO in each assay. EPO activity was normalized to total protein concentration (Pierce BCA assay) in supernatants. Background EPO activity was determined from the unsensitized, antigen-challenged control group. Percent inhibition was calculated from the sensitized, antigen-challenged, vehicle-treated control group in each experiment. Ovalbumin-injected animals dosed topically with 0.1% w/v dexamethasone (dex) served as positive control. Groups were compared by ANOVA with Dunnett's or Tukey's post-hoc tests where appropriate with significance assigned at the 95% confidence level.
The table below summarizes the results.

SMILES | Scratching Bouts (% change from vehicle control) (CD-1 mice) | BID activity [1]
CN1CCN(c2nc3ccc(Cl)cc3n3cnnc23)CC1 [Example 55, 8-chloro-4-(4-methylpiperazin-1-yl)-[1,2,4]triazolo[4,3-a]quinoxaline] | −65^1,2% | +
Clc1ccc2nc(N3CCNCC3)c3nncn3c2c1 [Example 57, 8-chloro-4-(piperazin-1-yl)-[1,2,4]triazolo[4,3-a]quinoxaline] | −66^1% | +
